Assay [1] is described as follows: cells. Format: functional, cell-based.
Assay [2] in a line: cells. Format: functional, cell-based. This is another data set of the same source.
The test system of assay [3] is INS1. In words: INS-1E survival protection against cytokine death – cell-based, luminescence, retest, dose response (AID 449756).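 Note: cell death triggered by IL-1 beta plus TNF-alpha plus IFN-gamma mixture; protective hits raise ATP signal compared with cytokine alone wells.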 The settings on record: Rattus norvegicus. The class given is functional.
Assay [4] deals with T1, Rac GTPase-activating protein 1 (Homo sapiens, UniProt Q9H0H5).
T1 sequence (Q9H0H5 whole entry): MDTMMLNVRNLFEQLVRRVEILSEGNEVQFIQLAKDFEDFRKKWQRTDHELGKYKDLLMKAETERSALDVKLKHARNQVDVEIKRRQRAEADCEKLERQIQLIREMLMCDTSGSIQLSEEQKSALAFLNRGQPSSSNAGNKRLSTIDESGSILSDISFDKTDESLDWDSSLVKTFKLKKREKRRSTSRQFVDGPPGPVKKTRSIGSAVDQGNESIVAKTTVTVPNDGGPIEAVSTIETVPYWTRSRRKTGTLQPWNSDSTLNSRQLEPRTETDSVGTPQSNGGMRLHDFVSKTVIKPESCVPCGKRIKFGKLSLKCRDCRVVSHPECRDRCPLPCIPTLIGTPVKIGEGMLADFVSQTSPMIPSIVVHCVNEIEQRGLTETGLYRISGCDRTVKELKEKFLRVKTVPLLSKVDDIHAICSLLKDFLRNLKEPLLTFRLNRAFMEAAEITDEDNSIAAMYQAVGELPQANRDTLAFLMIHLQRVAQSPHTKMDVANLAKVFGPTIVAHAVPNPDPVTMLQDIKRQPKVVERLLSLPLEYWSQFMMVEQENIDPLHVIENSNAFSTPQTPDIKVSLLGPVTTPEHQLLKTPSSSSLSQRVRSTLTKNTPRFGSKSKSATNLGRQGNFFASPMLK
Description: blockers of MgcRacGAP-driven Rac1 GTP hydrolysis – biochemical, ADP Hunter fluorescence, primary and confirmatory, confirmation (AID 624330). The class given is functional.

Assay [5] deals with Luciferin 4-monooxygenase (Photinus pyralis, UniProt P08659). Description: inhibition of purified Photinus pyralis luciferase – biochemical, luminescence, dose response (AID 1891).
A short description of assay [6]: Luminescence Cell-Based Dose Confirmation HTS to Identify Inhibitors of Platelet Dense Granule Release. [Related pubchem assays: 1663 (Primary HTS), 1678 (Summary of Project)]. Format: functional.
A short description of assay [7]: cells. The class given is functional.
Assay [8] deals with T2, Corticotropin-releasing factor receptor 2/Corticotropin-releasing factor-binding protein (Homo sapiens, UniProt P24387+Q13324).
T2 sequence (Q13324 whole entry): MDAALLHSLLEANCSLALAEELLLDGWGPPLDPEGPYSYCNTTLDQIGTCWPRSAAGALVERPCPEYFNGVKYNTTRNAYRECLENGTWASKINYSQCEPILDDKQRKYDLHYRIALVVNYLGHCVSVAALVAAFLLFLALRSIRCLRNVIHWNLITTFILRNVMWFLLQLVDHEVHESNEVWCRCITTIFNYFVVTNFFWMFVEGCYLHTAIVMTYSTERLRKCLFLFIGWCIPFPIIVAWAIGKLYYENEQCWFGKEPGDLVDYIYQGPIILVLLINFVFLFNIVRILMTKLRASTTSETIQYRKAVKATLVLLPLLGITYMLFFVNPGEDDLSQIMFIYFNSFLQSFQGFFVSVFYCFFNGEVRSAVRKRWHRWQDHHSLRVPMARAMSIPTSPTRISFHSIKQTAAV
T2 sequence (P24387 whole entry): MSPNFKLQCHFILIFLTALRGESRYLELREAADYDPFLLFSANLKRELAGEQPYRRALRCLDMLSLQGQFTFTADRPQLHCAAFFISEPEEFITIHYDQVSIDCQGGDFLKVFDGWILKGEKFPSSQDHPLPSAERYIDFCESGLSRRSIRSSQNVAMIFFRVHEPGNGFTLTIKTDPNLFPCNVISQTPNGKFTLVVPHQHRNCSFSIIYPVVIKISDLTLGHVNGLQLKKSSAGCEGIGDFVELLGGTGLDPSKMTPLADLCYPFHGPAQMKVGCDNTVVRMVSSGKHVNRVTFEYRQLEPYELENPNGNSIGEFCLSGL
Description: activators of CRF receptor 2 with binding protein – uHTS hits, confirmation (AID 602473). The class given is functional. The settings on record: read-out: EC50_Mean.

Assay [9] concerns the target T3, Protein skinhead-1 (Caenorhabditis elegans, UniProt P34707).
T3 sequence (P34707 whole entry): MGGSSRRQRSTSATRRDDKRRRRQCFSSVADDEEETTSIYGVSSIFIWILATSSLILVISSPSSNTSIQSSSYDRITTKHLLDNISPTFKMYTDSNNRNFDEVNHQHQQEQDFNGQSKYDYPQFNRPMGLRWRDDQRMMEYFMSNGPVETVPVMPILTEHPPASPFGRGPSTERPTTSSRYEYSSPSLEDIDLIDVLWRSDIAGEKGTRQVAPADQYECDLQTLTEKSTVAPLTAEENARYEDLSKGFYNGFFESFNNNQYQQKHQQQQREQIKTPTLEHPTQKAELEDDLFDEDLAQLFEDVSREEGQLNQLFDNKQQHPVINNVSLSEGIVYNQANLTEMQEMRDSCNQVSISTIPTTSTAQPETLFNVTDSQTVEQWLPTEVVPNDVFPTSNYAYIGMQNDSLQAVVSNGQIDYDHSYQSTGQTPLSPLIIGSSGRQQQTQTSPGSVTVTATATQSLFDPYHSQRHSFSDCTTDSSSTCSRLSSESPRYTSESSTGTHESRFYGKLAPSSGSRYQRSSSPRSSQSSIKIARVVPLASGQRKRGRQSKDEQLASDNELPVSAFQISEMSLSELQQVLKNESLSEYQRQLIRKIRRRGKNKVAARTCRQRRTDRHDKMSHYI
Format: functional.

Assay [10] concerns Streptococcus sp. 'group A'. In words: Streptococcus pyogenes SK(-)GAS viability under kanamycin – luminescence, BacTiterGlo, confirmation, counter-screen for streptokinase expression inhibitor project, dose response (AID 1900). Format: functional, organism-based. A general note: A counterscreen serves to expose hits that act by an unwanted route or on another target.
Assay [11] concerns Streptococcus. In words: GAS UMAA2166 growth inhibition – luminescence, BacTiterGlo, counter-screen for streptokinase expression inhibitor project, dose response (AID 1915).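 Note: potency for reduction of bacterial viability or growth.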 The class given is functional, organism-based.
Assay [12] deals with T4, Heat shock factor protein 1 (Mus musculus, UniProt P38532).
T4 sequence (P38532 whole entry): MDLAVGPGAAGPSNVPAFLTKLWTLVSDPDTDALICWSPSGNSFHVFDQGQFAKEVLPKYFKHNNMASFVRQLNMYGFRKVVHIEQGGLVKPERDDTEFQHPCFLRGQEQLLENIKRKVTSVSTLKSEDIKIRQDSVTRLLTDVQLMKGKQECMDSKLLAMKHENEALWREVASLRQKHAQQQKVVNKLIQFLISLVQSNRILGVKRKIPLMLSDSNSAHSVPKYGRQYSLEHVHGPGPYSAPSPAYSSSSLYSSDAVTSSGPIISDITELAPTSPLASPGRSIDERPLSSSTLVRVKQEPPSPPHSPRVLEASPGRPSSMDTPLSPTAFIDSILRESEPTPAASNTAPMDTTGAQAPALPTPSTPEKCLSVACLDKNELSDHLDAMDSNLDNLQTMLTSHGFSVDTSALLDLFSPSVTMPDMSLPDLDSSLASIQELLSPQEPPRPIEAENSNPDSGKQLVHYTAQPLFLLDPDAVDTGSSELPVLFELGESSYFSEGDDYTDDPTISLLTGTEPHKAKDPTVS
In words: enhancement of HSF1-driven luciferase signal – cell-based, NIH3T3, luminescence, dose retest, confirmation (AID 435004).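 Note: stress induced by proteasome inhibitor MG132 added 30 min after compound; luciferase reporter driven by HSF1 response element in NIH3T3 cells; actives raise luminescence as potentiators of the MG132 stress response.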 The class given is functional.

The source made the active and inactive calls. Cut-off read from the data, not from the text of the source, for most assays here: actives have a measured EC50 and inactives only a lower limit. Some results are limits rather than exact numbers.

Chain of Luciferin 4-monooxygenase (P08659 whole entry): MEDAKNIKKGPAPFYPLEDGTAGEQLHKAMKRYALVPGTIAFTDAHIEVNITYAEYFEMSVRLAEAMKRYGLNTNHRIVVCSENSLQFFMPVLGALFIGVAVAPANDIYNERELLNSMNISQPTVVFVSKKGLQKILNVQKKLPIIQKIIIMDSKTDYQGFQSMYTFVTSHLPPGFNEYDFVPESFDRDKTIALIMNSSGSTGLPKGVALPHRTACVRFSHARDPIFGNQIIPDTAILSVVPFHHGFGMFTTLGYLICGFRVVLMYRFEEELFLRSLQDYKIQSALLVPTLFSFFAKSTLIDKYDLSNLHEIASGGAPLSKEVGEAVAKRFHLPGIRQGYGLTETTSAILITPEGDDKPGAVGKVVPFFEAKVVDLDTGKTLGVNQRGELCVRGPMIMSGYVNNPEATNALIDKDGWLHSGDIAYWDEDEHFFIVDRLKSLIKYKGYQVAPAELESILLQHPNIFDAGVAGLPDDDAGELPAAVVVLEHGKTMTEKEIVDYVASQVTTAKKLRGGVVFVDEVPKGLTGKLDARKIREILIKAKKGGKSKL

For `COc1cc(NC(=O)CN2C(=O)c3ccccc3Sc3ccc(C(=O)N4CCOCC4)cc32)cc(OC)c1OC`, the EC50 in assay [1] and in assay [2] was > 350 µM (not active) each time.

Consider `Cc1nnc2ccc(Oc3ccc(-c4ccccc4)cc3)nn12`, for which the half-maximal activity concentration (AC50) in [3] is 6.58 µM (active). The IC50 in assay [4] is 99.4 µM (active).

On to `O=S(=O)(Nc1ccc(-c2ccc3nncn3n2)cc1)c1ccccc1Cl`, for which the EC50 in [5] was > 112 µM (not active); in [6] it was 51.9 µM (active).

Regarding `CCSc1cc(C)nc2c(-c3ccccc3)cnn12`, the EC50 is > 350 µM (not active) in [1] and 23.1 µM (active) in assay [2].

`Cc1ccc2nc(C)c3c(c2c1)COC3`: in [7], the IC50 is > 50 µM (active).

Take `CSc1nnc(C)c(/C=C/Nc2ccc(C)cc2)n1`: in assay [8], the EC50 was 14.9 µM (active).

Consider `O=C(CCN1CCC(c2ccccc2)C1)c1ccccc1` (stereo not drawn), for which, in assay [7], the IC50 is 31.7 µM (active).

With `CSc1nc2c(c(-c3ccc(O)cc3)c1C#N)CCC2`, the EC50 in assay [5] and in assay [6] was > 112 µM (not active) each time.

As to `CCN1CCN(C(S)=NCC2CCCO2)CC1` (stereo not drawn), the IC50 in assay [4] was 186 µM (active).

In the case of `Clc1ccc(CNc2ccc3nnc(-c4ccccc4)n3n2)cc1`, the EC50 in [5] and in assay [6] was > 112 µM (not active) each time.

Regarding `Cc1cc(/C=C(\C#N)C(=O)Nc2ccc(F)cc2)c(C)n1-c1ccc(N2CCOCC2)c([N+](=O)[O-])c1`, the IC50 in assay [9] is > 100 µM (inactive).

Consider `Cc1ccc(OC(C)C(=O)N2CC(=O)Nc3ccccc32)cc1` (stereo not drawn), for which the EC50 in [1] and in [2] was > 350 µM (not active) in each case.

Regarding `CCN(CC(=O)NCc1ccc(F)cc1)Cc1nc(O)c2ccc(Cl)cc2n1`, the IC50 in [9] was > 100 µM (inactive).

For the compound `Cc1ccc(S(=O)(=O)Nc2cc(-c3ccc(Cl)cc3)nn2C)cc1`, the EC50 in assay [1] and in [2] was > 350 µM (not active) each time.

As for `Cc1ccc(COC(=O)Cc2coc3cc(O)ccc23)cc1`, the concentration for half-maximal inhibition (IC50) in assay [4] is 30.1 µM (active).

With `O=C(CSc1nnnn1C1CC1)N1CCN(c2ccc(O)cc2)CC1`, the IC50 in assay [4] was 30.8 µM (active).

Regarding `CCCS(=O)(=O)N1CCN(Cc2ccco2)CC1`, in assay [4], the IC50 was 130 µM (active).

For `Cc1ccc(/C=C2/C(=O)NC(=O)N(CCc3ccc(F)cc3)C2=O)s1`, the IC50 in assay [7] is 39.2 µM (active).

As for `Cc1cccc(Nc2c(-c3ccc(O)cc3)nc3ncccn23)c1`, the IC50 in [4] is 32.1 µM (active).

`O=C(CCCCl)Oc1ccc2cc(-c3ccc4ccccc4n3)c(=O)oc2c1`: the EC50 in assay [8] is 13.7 µM (active).

Consider `Cc1ccc(OCCCCNC(C)(C)C)c([N+](=O)[O-])c1`, for which the IC50 in [4] is 141 µM (active).

Consider `Oc1ccc(-c2cn3c(n2)SCC3)cc1`, for which the half-maximal inhibitory concentration (IC50) in assay [4] is 18.9 µM (active).

As to `O=C(c1ccc(F)cc1)c1cc2ccc(O)cc2oc1=O`, the EC50 in assay [10] is 10.7 µM (active); in assay [5], 0.731 µM (active); in [6], 0.457 µM (active); in assay [11], 15.7 µM (active).

`O=C(Cn1nc(-c2ccccc2Cl)ccc1=O)Nc1ccccc1-c1ccccc1`: the EC50 in assay [1] is > 350 µM (not active); in assay [2] it was > 350 µM (not active); in [12], 120 µM (active).

Take `Cc1ccccc1C(=O)NC(CC(C)C)C(=O)Nc1ccc(S(N)(=O)=O)cc1` (stereo not drawn): the EC50 in [5] and in [6] was > 112 µM (not active) each time.

As for `O=C(NC1CCCCC1)N1CCC(c2nc(-c3ccc(S(=O)(=O)N4CCCC4)cc3)no2)CC1`, the EC50 in assay [5] and in assay [6] was > 112 µM (not active) in each case.

As to `COC(=O)c1cc2sccc2n1Cc1ccc(C)cc1`, the IC50 in assay [9] was > 100 µM (inactive).

Take `Cc1ccc(-n2cc(CN3CCC(CO)(Cc4ccccc4)CC3)cn2)cc1`: the EC50 in assay [1] and in [2] was > 350 µM (not active) each time.

As for `O=C(NCCCN1CCOCC1)C1(c2ccccc2)CCCC1`, the EC50 in assay [5] and in [6] was > 112 µM (not active) in each case.

`COc1ccc(NC2CCCN(C(=O)c3ccc4[nH]c(C)c(C)c4c3)C2)cc1` (stereo not drawn): the IC50 in assay [4] was 81.4 µM (active).

`O=c1c2ccccc2ncn1-c1ccc(Cl)cc1Cl`: the IC50 in assay [9] was > 100 µM (inactive).

Take `NS(=O)(=O)c1ccc(CCNC(=O)COC(=O)CCc2c[nH]c3ccccc23)cc1`: the EC50 in assay [8] is 22 µM (active).

Turning to `CCn1nc(CCC(=O)O)c2ccccc2c1=O`, in [9], the IC50 is > 100 µM (inactive).

Regarding `C(/CCc1ccccc1)=N\Nc1nc2ccccc2[nH]1`, the figures for the EC50 in assay [1] and in assay [2] were 92.2 µM (active) and 35.8 µM (active), respectively. Further, the half-maximal activity concentration (AC50) in [3] is 5.2 µM (active).

With `COc1ccc(/C=N/N=C(\N)c2nonc2N)cc1`, the figures for the EC50 in assay [5] and in assay [6] were 3.82 µM (active) and 2.67 µM (active), respectively.

For `Cc1occc1C(=O)N/N=C/c1c(O)ccc2ccccc12`, the EC50 was 69 µM (active) in assay [1] and 9.8 µM (active) in assay [2]. The half-maximal activity concentration (AC50) in assay [3] was 1.25 µM (active).

As usually defined, the AC50 is the concentration giving half of the maximal activity seen. For orientation: IC50 means the concentration needed to halve the response being measured.

The values are drawn from ChEMBL document CHEMBL1201862, “PubChem BioAssay data set” (2004).
